Experimental data as given in patent publication US5614533A, “Substituted pipecolinic acid derivatives as HIV protease inhibitors” (Bio-Mega/Boehringer Ingelheim Research, Inc., priority 1994, dated 1997).
Like-named read-outs stand apart in the source and are kept apart here.

How the values were obtained:
[1] = tested on: HIV (H9/HTLV-IIIB) in C8166 cells; assay: plaque assay: inhibition of syncytia formation in HIV-infected C8166 cells; assay type: cell-based; settings: Human immunodeficiency virus 1, IIIB, 72 h, 50% inhibition of syncytia formation
From the text: Typical of such procedures are those described by S. Harada and N. Yamamoto, Jpn. J. Cancer Res. (Gann), 76, 432 (1985), and S. Harada et al., Science, 229, 563 (1985). An assay based on the latter procedures is described in the examples hereinafter.
The following protocol, used for screening antiviral effects of the compounds of formula 1, is adapted from a plaque assay utilizing HTLV-I transformed cells, previously reported by Harada et al., supra. HTLV-I transformed cells are used because of the rapidity with which HIV will replicate in the cells.
1. The test compound is dissolved in dimethylsulfoxide to a concentration of 5 mg/mL. The resultant solution can be stored at 4° until use.
2. The resultant solution is diluted in RPMI 1640 (Gibco Laboratories, St. Lawrence, Mass., USA) to four times (4×) the final concentration which is to be tested. Once diluted in RPMI 1640, the solution is used in the cell culture assay within 4 h.
3. The 4× solution (50 μL) is added to triplicate wells of a 96 well flat bottomed microtiter plate. RPMI (50 μL) also is added to control wells.
4. C8166 cells (5×10^4) in 50 μL of HEPES-buffered RPMI 1640 (pH=7.2), 10% heat inactivated fetal calf serum (FCS), […] gentamicin (complete media) are added to all wells.
5. Fifty times TCID50 of H9/HTLV-IIIB stock (stored in liquid nitrogen as cell culture supernatant in 50% FCS) in 100 μL of complete media is added to all wells. Infectious titer of virus stocks are as previously determined by end point dilution on C8166 cells. Titer of stocks are stable for 6-12 months when stored at -193°.
6. Microtiter plates are then placed on level shelves of a 37°, 5% CO2 humidified incubator for 72 h.
7. Plates are then removed and centers of syncytia are counted in each well by low power phase contrast light microscopy. […] Control wells should have between 25 and 75 centers of syncytia per well.
8. Percent inhibition of syncytia formation is calculated by the formula: [formula]
The concentration of the test compound which causes a 50% inhibition of syncytia formation, i.e. the EC50, is determined by using the technique of serial dilution of the working solution at step 3 and by using non-linear regression analysis (SAS® program) to graphically plot the observed percent inhibition of syncytia formation against the various concentrations of the test compound.

HIV protease = target: T1, HIV protease (Human immunodeficiency virus type 1 group M subtype B, UniProt P04585); assay: Recombinant HIV Protease HPLC Assay; assay type: biochemical
T1 construct: HIV protease was expressed in E. coli; made in house; host or cells: E. coli (plasmid pBRT1 prt+)
From the text: The procedure is based on the capacity of the test compound to inhibit enzymatic cleavage by HIV protease of a decapeptide (the substrate) having an amino acid sequence which includes a known HIV protease cleavage site of a HIV polyprotein; see H. G. Krausslich et al., Proc. Natl. Acad. Sci. USA, 86, 807 (1989). Details of this assay together with the results obtained for exemplified compounds of formula 1 are described in the examples hereinafter.
Recombinant HIV Protease HPLC Assay:
Enzyme: HIV protease was expressed in E. coli {construct pBRT1 prt^+, see W. G. Farmerie et al., Science, 236, 305 (1987)}, according to the following protocol:
E. coli cells containing the pBRT1 prt^+ plasmid were used to inoculate a seed culture media composed of Luria-Bertani Broth containing 100 μg/mL of ampicillin. Flasks were incubated at 37° under agitation for 17 h. Production flasks containing sterile M9 broth, supplemented with 100 μg/mL of ampicillin, were inoculated at a level of 1% (v/v) using the seed culture described above. Total volume in each production flask was 500 mL in a 2 L Erlenmeyer flask. Flasks were incubated at 37° under agitation until a cell concentration corresponding to an optical density ([…]) of 0.6 was reached (no dilution). This time span was routinely 3-4 h. Flasks were then supplemented with 5 mM isopropylthiogalactoside (IPTG, Research Organics, Cleveland, Ohio, USA) and incubation was continued until the cell concentration reached an optical density of 0.2 at 16-fold dilution. Flasks were then supplemented with 1 mM phenylmethylsulfonyl fluoride (PMSF) and rapidly chilled to 4°. The bacterial cells were recovered by centrifugation at 4°. The wet pellet was stored at -70°.
All steps below were performed at 4° unless otherwise indicated. Thawed cells were mixed with buffer A {50 mM tris(hydroxymethyl)[…] HCl (Tris-HCl, pH 7.4); 0.6 mM ethylenediaminetetraacetic acid (EDTA); 0.375M NaCl, 0.2% Nonidet P-40® (BDH Chemicals Ltd., Poole, UK); 1 mM PMSF}, at a ratio of one part cells to nine parts buffer A. Diatomaceous earth (Celite 545®, John Manville, Lompoc, Calif. USA) was added at a ratio of two parts to one part of wet cell weight. The resulting slurry was homogenized at high speed (ca. 20,000 rpm) on a Waring® industrial blender for 8×15 sec. pulses. Cell debris/Celite® was collected by centrifugation and the resulting pellet was extracted with 4.5 parts of buffer A to one part wet solids using the homogenization procedure described above. Supernatants from both homogenization steps were combined and soluble protein was precipitated by the addition of solid (NH4)2 SO4 to yield a final concentration of 75% saturation. This mixture was agitated for 60 min and the precipitate was recovered by centrifugation. The resulting pellet was suspended in buffer B {50 mM Tris-HCl, pH 8; 30 mM NaCl; 1 mM DL-dithiothreitol (DTT); 1 mM EDTA; 1 mM PMSF; 10% glycerol}, and dialyzed for 18 h against the same buffer.
An aliquot of the dialyzed extract containing 150 mg of the protein was loaded onto a Sephadex A25® anion exchange column (Pharmacia, Uppsala, Sweden) with bed dimensions of 70 cm length and 2.5 cm diameter. The sample was eluted isocratically with buffer B at a linear flow rate of 10 cm/h. Fractions containing HIV protease activity (see below for assay description) were combined, and soluble protein was precipitated by the addition of saturated aqueous (NH4)2 SO4 to yield a total (NH4)2 SO4 concentration of 85% saturation. Precipitated protein was removed by centrifugation and the resulting pellet was dissolved in buffer C {50 mM 2-(4-morpholino)ethanesulfonic acid (MES), pH 5.5; 150 mM NaCl; 1 mM DTT; 1 mM EDTA; 10% glycerol}. This preparation was dialyzed for 18 h against buffer C, and then frozen at -70°. All crude extracts were purified by chromatography in aliquots containing 150 mg of protein in the same manner as described above. […]

Compound	EC50 ([1]; Table IV)	IC50 (HIV protease; Table IV, 37°, 30 min, pH 5.5)	IC50 (HIV protease)	EC50 ([1]; Table V)	IC50 (HIV protease; Table V, 37°, 30 min, pH 5.5)
CC(C)(C)NC(=O)[C@@H]1C[C@H](Sc2ccncc2)CCN1C[C@@H](O)[C@H](Cc1ccccc1)NC(=O)OCc1ccccc1 [Table IV, entry 29]	140 nM	8 nM	–	–	–
Cc1cc(C)nc(S[C@@H]2CCN(C[C@@H](O)[C@H](Cc3ccccc3)NC(=O)OCc3ccccc3)[C@H](C(=O)NC(C)(C)C)C2)n1 [Table IV, entry 31, N-tert-butyl-1-{3(S)-(benzyloxycarbonylamino)-2(R)-hydroxy-4-phenylbutyl}-4(R)-(4,6-dimethyl-2-pyrimidinylthio)-piperidine-2(S)-carboxamide]	290 nM	–	12 nM	–	–
CC(C)[C@H](NC(=O)OCc1ccccc1)C(=O)N[C@@H](Cc1ccccc1)[C@H](O)CN1CC[C@@H](SCc2ccccc2)C[C@H]1C(=O)NC(C)(C)C [Table IV, entry 37, N-tert-butyl-1-{3(S)-{{N-(benzyloxycarbonyl)valyl}amino}-2(R)-hydroxy-4-phenylbutyl}-4(R)-(benzylthio)piperidine-2(S)-carboxamide]	7 nM	2.3 nM	–	–	–
CC(C)[C@H](NC(=O)N(C)Cc1ccccn1)C(=O)N[C@@H](Cc1ccccc1)[C@H](O)CN1CC[C@@H](Sc2ccccc2)C[C@H]1C(=O)NC(C)(C)C [Table IV, entry 38, N-tert-butyl-1-{2(R)-hydroxy-3(S)-{N-{{N-methyl-N-(2-pyridinylmethyl)amino}carbonyl}valyl}-4-phenylbutyl}-4(R)-(phenylthio)piperidine-2(S)-carboxamide]	14 nM	4.3 nM	–	–	–
CC(C)[C@H](NC(=O)c1ccc2ccccc2n1)C(=O)N[C@@H](Cc1ccccc1)[C@H](O)CN1CC[C@@H](Sc2ncccn2)C[C@H]1C(=O)NC(C)(C)C [Table V, entry 1, N-tert-butyl-1-{2(R)-hydroxy-4-phenyl-3(S)-{{N-(2-quinolylinylcarbonyl)valyl}amino}butyl}-4(R)-(2-pyrimidinylthio)piperidine-2-carboxamide]	–	–	–	7 nM	3.6 nM
CC(C)[C@H](NC(=O)c1ccc2ccccc2n1)C(=O)N[C@@H](Cc1ccccc1)[C@H](O)CN1CC[C@@H](SCc2ccncc2)C[C@H]1C(=O)NC(C)(C)C [Table V, entry 2(S), N-tert-butyl-1-{2(R)-hydroxy-4-phenyl-3(S)-{{N-(2-quinolylinylcarbonyl)valyl}amino}butyl}-4(R)-{(4-pyridinylmethyl)thio}piperidine-2-carboxamide]	–	–	–	4 nM	2.8 nM

More lines, in order of falling EC50 ([1]; Table IV), values ahead:

EC50 ([1]; Table IV)	IC50 (HIV protease; Table IV, 37°, 30 min, pH 5.5)	IC50 (HIV protease)	EC50 ([1]; Table V)	IC50 (HIV protease; Table V, 37°, 30 min, pH 5.5)	Compound
822 nM	19 nM	–	–	–	CC(C)(C)NC(=O)[C@@H]1C[C@H](Sc2ncccn2)CCN1C[C@@H](O)[C@H](Cc1ccccc1)NC(=O)OCc1ccccc1 [Table IV, entry 30, N-tert-butyl-1-{3(S)-(benzyloxycarbonylamino)-2(R)-hydroxy-4-phenylbutyl}-4(R)-(2-pyrimidinylthio)piperidine-2(S)-carboxamide]
15 nM	3.7 nM	–	–	–	CC(C)[C@H](NC(=O)OCc1ccccc1)C(=O)N[C@@H](Cc1ccccc1)[C@H](O)CN1CC[C@@H](Sc2ncccn2)C[C@H]1C(=O)NC(C)(C)C [Table IV, entry 35, N-tert-butyl-1-{3(S)-{{N-(benzyloxycarbonyl)valyl}amino}-2(R)-hydroxy-4-phenylbutyl}-4(R)-(2-pyrimidinylthio)piperidine-2(S)-carboxamide]
9 nM	3 nM	–	–	–	Cc1cc(C)nc(S[C@@H]2CCN(C[C@@H](O)[C@H](Cc3ccccc3)NC(=O)[C@@H](NC(=O)OCc3ccccc3)C(C)C)[C@H](C(=O)NC(C)(C)C)C2)n1 [Table IV, entry 36, N-tert-butyl-1-{3(S)-{{N-(benzyloxycarbonyl)valy}amino}-2(R)-hydroxy-4-phenylbutyl}-4(R)-(4,6-dimethyl-2-pyrimidinylthio)piperidine-2(S)-carboxamide]
